Test results taken from patent publication US10246453B2, “Benzenesulfonamide compounds and their use as therapeutic agents” (Xenon Pharmaceuticals Inc., priority 2016, dated 2019).
Structures can show the parent of a compound that is named as a salt. Where two headings read alike, the source gives them in different places.

What was measured:
NaV1.6 [1] = target: T1, NaV1.6 (Homo sapiens (Human), UniProt Q9UQD0); experiment: Sodium Influx Assay (Flux), NaV1.6
NaV1.1 [2] = target: T2, NaV1.1 (Homo sapiens (Human), UniProt P35498); experiment: Sodium Influx Assay (Flux), NaV1.1; format: cell-based; details: Trex HEK293 cells, ANG2 dye; arithmetic mean
NaV1.1 [3] = target: T2, NaV1.1; experiment: Electrophysiological Assay (EP), patch voltage clamp, NaV1.1; format: cell-based; details: HEK-293 cells, whole-cell patch clamp, inactivated state; arithmetic mean
NaV1.5 [4] = target: T3, NaV1.5 (Homo sapiens (Human), UniProt Q14524)
T3 sequence (Q14524 other isoform, or with tags, fused parts or gaps): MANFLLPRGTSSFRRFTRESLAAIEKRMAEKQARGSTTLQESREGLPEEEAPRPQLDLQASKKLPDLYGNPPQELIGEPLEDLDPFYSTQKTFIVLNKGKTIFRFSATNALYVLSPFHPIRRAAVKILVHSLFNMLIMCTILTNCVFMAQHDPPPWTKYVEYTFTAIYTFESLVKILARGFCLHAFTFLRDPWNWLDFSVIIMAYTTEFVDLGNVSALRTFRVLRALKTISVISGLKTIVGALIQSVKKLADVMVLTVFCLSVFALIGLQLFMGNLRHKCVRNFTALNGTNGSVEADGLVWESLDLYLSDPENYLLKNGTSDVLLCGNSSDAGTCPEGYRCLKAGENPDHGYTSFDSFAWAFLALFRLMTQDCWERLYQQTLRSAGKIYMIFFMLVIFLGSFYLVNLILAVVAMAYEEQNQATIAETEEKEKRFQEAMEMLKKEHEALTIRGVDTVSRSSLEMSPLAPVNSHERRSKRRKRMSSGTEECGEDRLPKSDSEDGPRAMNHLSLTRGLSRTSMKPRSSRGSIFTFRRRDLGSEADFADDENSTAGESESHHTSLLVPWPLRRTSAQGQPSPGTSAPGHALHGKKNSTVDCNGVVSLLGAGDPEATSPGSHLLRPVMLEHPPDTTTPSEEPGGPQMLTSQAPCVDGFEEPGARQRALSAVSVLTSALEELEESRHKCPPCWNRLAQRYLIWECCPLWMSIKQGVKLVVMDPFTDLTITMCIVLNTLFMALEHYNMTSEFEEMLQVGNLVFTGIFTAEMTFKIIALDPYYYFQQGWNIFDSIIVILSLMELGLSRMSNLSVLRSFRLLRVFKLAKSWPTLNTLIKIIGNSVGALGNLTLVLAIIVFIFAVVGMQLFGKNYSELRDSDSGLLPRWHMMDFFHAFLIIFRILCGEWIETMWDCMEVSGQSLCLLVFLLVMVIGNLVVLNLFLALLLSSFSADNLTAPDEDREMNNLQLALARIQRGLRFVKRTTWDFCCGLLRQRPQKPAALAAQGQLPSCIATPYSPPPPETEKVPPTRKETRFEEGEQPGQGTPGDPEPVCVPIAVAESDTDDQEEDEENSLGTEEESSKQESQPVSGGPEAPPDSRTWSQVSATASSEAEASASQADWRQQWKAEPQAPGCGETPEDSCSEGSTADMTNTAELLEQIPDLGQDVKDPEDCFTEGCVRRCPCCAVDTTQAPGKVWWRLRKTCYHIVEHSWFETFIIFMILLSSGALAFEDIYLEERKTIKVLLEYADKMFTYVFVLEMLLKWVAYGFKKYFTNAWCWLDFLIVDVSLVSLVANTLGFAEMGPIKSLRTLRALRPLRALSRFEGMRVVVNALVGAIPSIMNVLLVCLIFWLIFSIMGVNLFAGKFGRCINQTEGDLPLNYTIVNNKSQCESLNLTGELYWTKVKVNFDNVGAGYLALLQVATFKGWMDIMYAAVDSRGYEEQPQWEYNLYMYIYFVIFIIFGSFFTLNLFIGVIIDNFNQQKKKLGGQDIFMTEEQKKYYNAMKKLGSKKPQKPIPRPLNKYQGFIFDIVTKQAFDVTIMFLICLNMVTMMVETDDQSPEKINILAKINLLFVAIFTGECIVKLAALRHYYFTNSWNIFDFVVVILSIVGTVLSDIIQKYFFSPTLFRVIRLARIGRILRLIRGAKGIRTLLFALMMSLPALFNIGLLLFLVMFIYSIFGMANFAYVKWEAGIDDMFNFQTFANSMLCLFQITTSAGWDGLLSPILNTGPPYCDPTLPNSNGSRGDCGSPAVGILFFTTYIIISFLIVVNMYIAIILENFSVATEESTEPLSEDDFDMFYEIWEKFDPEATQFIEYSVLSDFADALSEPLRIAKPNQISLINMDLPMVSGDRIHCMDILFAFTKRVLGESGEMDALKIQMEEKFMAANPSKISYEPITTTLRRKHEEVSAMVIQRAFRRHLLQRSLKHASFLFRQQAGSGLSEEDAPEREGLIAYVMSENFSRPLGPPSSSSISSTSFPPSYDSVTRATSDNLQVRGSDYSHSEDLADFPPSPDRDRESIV

NaV1.6 [5] = target: T1, NaV1.6; experiment: Electrophysiological Assay (EP), patch voltage clamp, NaV1.6; format: cell-based; details: HEK-293 cells, whole-cell patch clamp, inactivated state; arithmetic mean
NaV1.5 [6] = target: T3, NaV1.5; experiment: Electrophysiological Assay (EP), patch voltage clamp, NaV1.5; format: cell-based; details: HEK-293 cells, whole-cell patch clamp, inactivated state; arithmetic mean
Experimental: Sodium currents were measured using the patch clamp technique in the whole-cell configuration using either a PatchXpress automated voltage clamp or manually using an Axopatch 200B (Axon Instruments) or Model 2400 (A-M systems) amplifier.
In some studies, the external sodium was reduced by equimolar replacement with choline. […] All recordings were performed at ambient temperature in a bath chamber with a volume of 150 μL. Control sodium currents were measured in 0.5% DMSO. Controls and representative compounds of the invention were applied to the recording chamber through a 4-pinch or 8-pinch valve bath perfusion system manufactured by ALA Scientific Instruments.
Series resistance compensation was applied (60-80%). […] All statistics in this study are given as mean±SD.
The membrane potential was maintained at a voltage where inactivation of the channel is complete. The voltage is then stepped back to a very negative (Vhold=−150 mV) voltage for 20 ms and then a test pulse is applied to quantify the compound block. […] The percent decrease in sodium current following wash-on of compound was taken as the percent block of sodium channels.

NaV1.5 [7] = target: T3, NaV1.5; experiment: Sodium Influx Assay (Flux), NaV1.5; details: read-out: Flux NaV1.5 IC50; Trex HEK293 cells, ANG2 dye; arithmetic mean
NaV1.5 [8] = target: T3, NaV1.5; experiment: cell-based
[9] = read-out: Flux NaV1.6 IC50, Trex HEK293 cells, ANG2 dye, arithmetic mean

T1 sequence (Q9UQD0 whole entry): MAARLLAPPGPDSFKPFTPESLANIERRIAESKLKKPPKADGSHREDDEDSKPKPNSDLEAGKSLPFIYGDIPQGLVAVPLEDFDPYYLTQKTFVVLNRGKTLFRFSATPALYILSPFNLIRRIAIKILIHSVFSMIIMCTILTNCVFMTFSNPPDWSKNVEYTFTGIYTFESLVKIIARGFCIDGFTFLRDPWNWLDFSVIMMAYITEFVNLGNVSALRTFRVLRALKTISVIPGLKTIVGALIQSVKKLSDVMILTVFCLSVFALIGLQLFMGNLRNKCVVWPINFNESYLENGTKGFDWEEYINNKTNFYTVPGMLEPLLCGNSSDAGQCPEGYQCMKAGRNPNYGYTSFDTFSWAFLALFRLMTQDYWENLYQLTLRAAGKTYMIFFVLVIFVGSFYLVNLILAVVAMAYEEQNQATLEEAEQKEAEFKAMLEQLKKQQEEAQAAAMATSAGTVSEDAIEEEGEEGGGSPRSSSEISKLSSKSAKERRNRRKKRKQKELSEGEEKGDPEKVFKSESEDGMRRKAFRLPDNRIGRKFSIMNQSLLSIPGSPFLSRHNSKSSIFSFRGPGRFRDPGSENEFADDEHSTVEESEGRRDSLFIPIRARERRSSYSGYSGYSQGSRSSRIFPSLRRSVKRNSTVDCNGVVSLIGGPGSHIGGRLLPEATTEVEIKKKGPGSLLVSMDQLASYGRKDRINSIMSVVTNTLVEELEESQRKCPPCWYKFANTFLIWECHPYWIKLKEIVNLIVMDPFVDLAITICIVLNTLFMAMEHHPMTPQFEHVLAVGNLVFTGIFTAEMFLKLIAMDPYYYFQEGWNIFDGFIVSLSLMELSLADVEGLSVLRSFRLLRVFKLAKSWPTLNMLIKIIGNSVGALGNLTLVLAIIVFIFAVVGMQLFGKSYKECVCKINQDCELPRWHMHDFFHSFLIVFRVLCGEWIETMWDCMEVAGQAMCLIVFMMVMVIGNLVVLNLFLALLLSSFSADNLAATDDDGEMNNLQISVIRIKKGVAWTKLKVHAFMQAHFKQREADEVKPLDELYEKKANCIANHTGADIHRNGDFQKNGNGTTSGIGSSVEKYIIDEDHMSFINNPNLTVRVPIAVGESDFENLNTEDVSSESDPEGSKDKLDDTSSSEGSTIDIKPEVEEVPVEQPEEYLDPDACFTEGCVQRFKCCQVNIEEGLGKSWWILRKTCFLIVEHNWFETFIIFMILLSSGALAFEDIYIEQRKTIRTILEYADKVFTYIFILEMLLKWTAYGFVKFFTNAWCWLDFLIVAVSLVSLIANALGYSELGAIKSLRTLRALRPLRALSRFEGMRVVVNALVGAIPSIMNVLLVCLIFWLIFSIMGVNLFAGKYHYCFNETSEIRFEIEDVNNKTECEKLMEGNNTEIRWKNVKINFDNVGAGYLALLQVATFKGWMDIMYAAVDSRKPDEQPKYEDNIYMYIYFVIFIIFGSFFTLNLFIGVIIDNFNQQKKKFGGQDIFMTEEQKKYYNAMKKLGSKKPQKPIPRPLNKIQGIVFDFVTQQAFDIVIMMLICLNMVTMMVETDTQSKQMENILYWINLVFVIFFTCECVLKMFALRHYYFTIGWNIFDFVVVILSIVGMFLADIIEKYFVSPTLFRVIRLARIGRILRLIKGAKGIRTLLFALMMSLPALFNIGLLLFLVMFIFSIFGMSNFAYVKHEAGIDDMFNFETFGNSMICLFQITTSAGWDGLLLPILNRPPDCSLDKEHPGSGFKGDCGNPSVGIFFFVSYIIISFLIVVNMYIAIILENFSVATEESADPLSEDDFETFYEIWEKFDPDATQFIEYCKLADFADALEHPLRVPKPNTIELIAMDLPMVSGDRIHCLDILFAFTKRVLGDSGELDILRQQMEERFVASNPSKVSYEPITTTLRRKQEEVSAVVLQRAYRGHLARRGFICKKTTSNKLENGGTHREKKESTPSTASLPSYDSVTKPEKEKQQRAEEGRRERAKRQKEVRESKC

O=S(=O)(Nc1nccs1)c1cc(Cl)c(O[C@@H]2C[C@H]3CC[C@@H](C2)N3Cc2ccccc2)cc1F [Example 17, 4-(((1R,3s,5S)-8-benzyl-8-azabicyclo[3.2.1]octan-3-yl)oxy)-5-chloro-2-fluoro-N-(thiazol-2-yl)benzenesulfonamide]
IC50 (NaV1.6 [1]; [9]): 0.392 µM | IC50 (NaV1.1 [2]): > 30 µM | IC50 (NaV1.1 [3]): > 10 µM | IC50 (NaV1.5 [4]): > 30 µM | IC50 (NaV1.6 [5]): 0.155 µM

CN(c1ccc(S(=O)(=O)Nc2ncns2)cc1Cl)[C@H]1CCN(Cc2ccccc2)C1 [Example 29, (S)-4-((1-benzylpyrrolidin-3-yl)(methyl)amino)-3-chloro-N-(1,2,4-thiadiazol-5-yl)benzenesulfonamide hydrochloride salt]
IC50 (NaV1.6 [1]; [9]): 0.244 µM | IC50 (NaV1.1 [2]): > 30 µM | IC50 (NaV1.5 [6]): > 10 µM | IC50 (NaV1.1 [3]): > 10 µM | IC50 (NaV1.5 [7]): 29.5 µM | IC50 (NaV1.6 [5]): 0.06 µM

CN(c1cc(F)c(S(=O)(=O)Nc2cscn2)cc1Cl)[C@H]1CCN(Cc2ccccc2)C1 [Example 38, (S)-4-((1-benzylpyrrolidin-3-yl)(methyl)amino)-5-chloro-2-fluoro-N-(thiazol-4-yl)benzenesulfonamide 2,2,2-trifluoroacetate]
IC50 (NaV1.6 [1]; [9]): 1.94 µM | IC50 (NaV1.1 [2]): 17.9 µM | IC50 (NaV1.5 [6]): > 30 µM | IC50 (NaV1.1 [3]): > 10 µM | IC50 (NaV1.5 [7]): 26.3 µM | IC50 (NaV1.6 [5]): 0.803 µM

CN(c1cc(F)c(S(=O)(=O)Nc2nccs2)cc1Cl)C1CCN(Cc2ccccc2)CC1 [Example 53, 4-((1-benzylpiperidin-4-yl)(methyl)amino)-5-chloro-2-fluoro-N-(thiazol-2-yl)benzenesulfonamide]
IC50 (NaV1.6 [1]; [9]): 0.601 µM | IC50 (NaV1.1 [2]): 7.41 µM | IC50 (NaV1.5 [4]): 24.5 µM

C[C@@H](c1ccccc1)N1CCC(Oc2ccc(S(=O)(=O)Nc3nccs3)cc2Cl)CC1 [Example 58, (S)-3-chloro-4-((1-(1-phenylethyl)piperidin-4-yl)oxy)-N-(thiazol-2-yl)benzenesulfonamide 2,2,2-trifluoroacetate]
IC50 (NaV1.6 [1]): 0.402 µM | IC50 (NaV1.6 [5]): 0.093 µM | IC50 (NaV1.5 [8]): 5.58 µM

O=S(=O)(Nc1nccs1)c1ccc(N[C@@H]2CCN(Cc3ccccc3F)C2)c(Cl)c1 [Example 71, (R)-3-chloro-4-((1-(2-fluorobenzyl)pyrrolidin-3-yl)amino)-N-(thiazol-2-yl)benzenesulfonamide]
IC50 (NaV1.6 [1]; [9]): 1.26 µM | IC50 (NaV1.1 [2]): 3.35 µM | IC50 (NaV1.5 [6]): 0.863 µM | IC50 (NaV1.5 [7]): 9.27 µM

Cc1c(N(C)[C@H]2CCN(Cc3ccccc3)C2)cc(F)c(S(=O)(=O)Nc2cscn2)c1F [Example 103, (S)-4-((1-benzylpyrrolidin-3-yl)(methyl)amino)-2,6-difluoro-3-methyl-N-(thiazol-4-yl)benzenesulfonamide 2,2,2-trifluoroacetate]
IC50 (NaV1.6 [1]; [9]): 0.061 µM | IC50 (NaV1.1 [2]): 28.5 µM | IC50 (NaV1.5 [6]): > 10 µM | IC50 (NaV1.1 [3]): 40.9 µM | IC50 (NaV1.5 [7]): 28.2 µM | IC50 (NaV1.6 [5]): 0.017 µM

CN(c1cc(F)c(S(=O)(=O)Nc2cscn2)cc1Cl)[C@H]1CCN(Cc2cccc3cccnc23)C1 [Example 170, (S)-5-chloro-2-fluoro-4-(methyl(1-(quinolin-8-ylmethyl)-pyrrolidin-3-yl)amino)-N-(thiazol-4-yl)benzene-sulfonamide formate]
IC50 (NaV1.6 [1]): 1.61 µM | IC50 (NaV1.1 [2]): 11.3 µM | IC50 (NaV1.5 [8]): 21.2 µM

COc1cccnc1CN1CC[C@H](N(C)c2cc(F)c(S(=O)(=O)Nc3cscn3)cc2Cl)C1 [Example 176, (S)-5-chloro-2-fluoro-4-((1-((3-methoxypyridin-2-yl)methyl)pyrrolidin-3-yl)(methyl)amino)-N-(thiazol-4-yl)benzene-sulfonamide formate]
IC50 (NaV1.6 [1]): 0.74 µM | IC50 (NaV1.1 [2]): > 30 µM | IC50 (NaV1.5 [8]): > 30 µM

CN(c1cc(F)c(S(=O)(=O)Nc2cscn2)cc1Cl)[C@H]1CCN(CCc2ccccc2)C1 [Example 179, (S)-5-chloro-2-fluoro-4-(methyl(1-phenethylpyrrolidin-3-yl)amino)-N-(thiazol-4-yl)benzene-sulfonamide formate]
IC50 (NaV1.6 [1]): 4.89 µM | IC50 (NaV1.1 [2]): 6.91 µM | IC50 (NaV1.5 [8]): 20.4 µM

Cc1ccc(CN2CC[C@H](N(C)c3cc(F)c(S(=O)(=O)Nc4cscn4)cc3Cl)C2)s1 [Example 189, (S)-5-chloro-2-fluoro-4-(methyl(1-((5-methylthiophen-2-yl)methyl)pyrrolidin-3-yl)amino)-N-(thiazol-4-yl)benzene-sulfonamide formate]
IC50 (NaV1.6 [1]): 1.87 µM | IC50 (NaV1.1 [2]): 7.38 µM | IC50 (NaV1.5 [8]): 16.6 µM

CN(c1cc(F)c(S(=O)(=O)Nc2cscn2)cc1Cl)[C@H]1CCN(Cc2ccc3[nH]ccc3c2)C1 [Example 190, (S)-4-((1-((1H-indol-5-yl)methyl)pyrrolidin-3-yl)(methyl)amino)-5-chloro-2-fluoro-N-(thiazol-4-yl)benzene-sulfonamide formate]
IC50 (NaV1.6 [1]): 2.33 µM | IC50 (NaV1.1 [2]): 5.17 µM | IC50 (NaV1.5 [8]): 8.25 µM

CN(c1ccc(S(=O)(=O)Nc2cscn2)cc1Cl)[C@H]1CCN(Cc2cc(Cl)ccc2F)C1 [Example 254, (S)-3-chloro-4-((1-(5-chloro-2-fluorobenzyl)pyrrolidin-3-yl)(methyl)amino)-N-(thiazol-4-yl)benzenesulfonamide formate]
IC50 (NaV1.6 [1]; [9]): 1.16 µM | IC50 (NaV1.1 [2]): 2.32 µM | IC50 (NaV1.5 [6]): 17 µM | IC50 (NaV1.5 [7]): 0.962 µM

C[C@H](c1ccccc1)N1CCC(N(C)c2cc(F)c(S(=O)(=O)Nc3cscn3)cc2Cl)CC1 [Example 280, (R)-5-chloro-2-fluoro-4-(methyl(1-(1-phenylethyl)piperidin-4-yl)amino)-N-(thiazol-4-yl)benzenesulfonamide formate]
IC50 (NaV1.6 [1]; [9]): 0.228 µM | IC50 (NaV1.1 [2]): 17.4 µM | IC50 (NaV1.5 [4]): 27.1 µM

Cc1cc(S(=O)(=O)Nc2cscn2)c(F)cc1N(C)C1CCN([C@H](C)c2ccccc2)CC1 [Example 281, (R)-2-fluoro-5-methyl-4-(methyl(1-(1-phenylethyl)piperidin-4-yl)amino)-N-(thiazol-4-yl)benzenesulfonamide 2,2,2-trifluoroacetate]
IC50 (NaV1.6 [1]; [9]): 0.021 µM | IC50 (NaV1.1 [2]): 14.6 µM | IC50 (NaV1.5 [4]): 13.1 µM

Cc1cccc(CN2CC[C@H](N(C)c3cc(F)c(S(=O)(=O)Nc4ncns4)c(F)c3C)C2)n1 [Example 296, 2,2,2-trifluoroacetate]
IC50 (NaV1.6 [1]; [9]): 0.01 µM | IC50 (NaV1.1 [2]): > 30 µM | IC50 (NaV1.6 [5]): 0.002 µM | IC50 (NaV1.5 [8]): > 30 µM

Cc1cccc(CN2CC[C@H](N(C)c3cc(F)c(S(=O)(=O)Nc4ncns4)c(F)c3Cl)C2)n1 [Example 297, (S)-3-chloro-2,6-difluoro-4-(methyl (1-((6-methylpyridin-2-yl)methyl)pyrrolidin-3-yl)amino)-N-(1,2,4-thiadiazol-5-yl)benzenesulfonamide 2,2,2-trifluoroacetate]
IC50 (NaV1.6 [1]): 0.062 µM | IC50 (NaV1.1 [2]): > 30 µM | IC50 (NaV1.6 [5]): 0.012 µM | IC50 (NaV1.5 [8]): > 30 µM

Cc1c(N(C)[C@H]2CCN(Cc3ccccc3)C2)cc(F)c(S(=O)(=O)Nc2cccc(F)n2)c1F [Example 298, (S)-4-((1-benzylpyrrolidin-3-yl)(methyl)amino)-2,6-difluoro-N-(6-fluoropyridin-2-yl)-3-methylbenzenesulfonamide formate]
IC50 (NaV1.6 [1]; [9]): 0.079 µM | IC50 (NaV1.1 [2]): 26 µM | IC50 (NaV1.5 [6]): > 10 µM | IC50 (NaV1.1 [3]): > 10 µM | IC50 (NaV1.5 [7]): > 30 µM | IC50 (NaV1.6 [5]): 0.043 µM

O=S(=O)(Nc1cscn1)c1ccc(O[C@@H]2C[C@H]3CC[C@@H](C2)N3Cc2cc(Cl)ccc2F)c(Cl)c1 [Example 316, 3-chloro-4-(((1R,3s,5S)-8-(5-chloro-2-fluorobenzyl)-8-azabicyclo[3.2.1]octan-3-yl)oxy)-N-(thiazol-4-yl)benzenesulfonamide formate]
IC50 (NaV1.6 [1]; [9]): 3.9 µM | IC50 (NaV1.1 [2]): 2.8 µM | IC50 (NaV1.5 [4]): 5.09 µM

O=S(=O)(Nc1cscn1)c1ccc(O[C@@H]2C[C@H]3CC[C@@H](C2)N3Cc2ccccc2)c(Cl)c1 [Example 318, 4-(((1R,3s,5S)-8-benzyl-8-azabicyclo[3.2.1]octan-3-yl)oxy)-3-chloro-N-(thiazol-4-yl)benzenesulfonamide]
IC50 (NaV1.6 [1]; [9]): 5.46 µM | IC50 (NaV1.1 [2]): 13.8 µM | IC50 (NaV1.1 [3]): > 10 µM | IC50 (NaV1.5 [4]): 17.4 µM | IC50 (NaV1.6 [5]): 1.15 µM

O=S(=O)(Nc1cscn1)c1ccc(O[C@@H]2C[C@H]3CC[C@@H](C2)N3Cc2ccc(F)c(Cl)c2)c(Cl)c1 [Example 319, 3-chloro-4-(((1R,3s,5S)-8-(3-chloro-4-fluorobenzyl)-8-azabicyclo[3.2.1]octan-3-yl)oxy)-N-(thiazol-4-yl)benzenesulfonamide formate]
IC50 (NaV1.6 [1]; [9]): 3.32 µM | IC50 (NaV1.1 [2]): 3.69 µM | IC50 (NaV1.5 [4]): 2.48 µM

CN(c1ccc(S(=O)(=O)Nc2ncns2)cc1Cl)[C@H]1CCN(Cc2cc(F)cc(F)c2)C1 [Example 327, (S)-3-chloro-4-((1-(3,5-difluorobenzyl)pyrrolidin-3-yl)(methyl)amino)-N-(1,2,4-thiadiazol-5-yl)benzenesulfonamide formate]
IC50 (NaV1.6 [1]): 1.04 µM | IC50 (NaV1.1 [2]): 17.3 µM | IC50 (NaV1.5 [8]): > 30 µM
